Laboratory results from patent publication US9365553B2, “Heterocyclic compound and H1 receptor antagonist” (Aska Pharmaceutical Co., Ltd., priority 2010, dated 2016).

How the values were obtained:
[1] = biological target: T1, rat H1 receptor (Rattus norvegicus, UniProt P31390); experiment: Rat H1 receptor affinity test (Test Example 1); assay type: binding; settings: rat cerebrum membrane preparation, [3H]-pyrilamine 2 nmol/L
T1 construct: An H1 receptor membrane preparation was prepared from rat cerebrum; from tissue; host or cells: rat cerebrum
Method: An H1 receptor membrane preparation was prepared from rat cerebrum. […] To the resulting each sample, 50 μL of 8 nmol/L [^3H]-pyrilamine (manufactured by PerkinElmer) (final concentration: 2 nmol/L) was added and mixed. After the mixture was incubated at a room temperature for 30 minutes, the reaction solution was collected on a glass filter by a cell harvester (manufactured by Molecular Devices), and then the filter was washed with the incubation buffer. The glass filter was cut off and transferred in a vial. To the vial was added 5 mL of a scintillator (manufactured by National Diagnostics), and the mixture was shaken for not less than one hour. Thereafter, the radioactive concentration was measured by a liquid scintillation counter.

[2] = biological target: T2, human H1 receptor (Homo sapiens, UniProt P35367); experiment: Human H1 receptor affinity test (Test Example 2); assay type: binding; settings: CHO cell membrane preparation expressing human H1 receptor, [3H]-pyrilamine 2 nmol/L
T2 construct: purchased; host or cells: CHO cells
Method: Chinese hamster ovarian cells (CHO cells) having human H1 receptor forcibly express were purchased and used as an H1 receptor membrane preparation. […] To the resulting each sample, 50 μL of 8 nmol/L [^3H]-pyrilamine (final concentration: 2 nmol/L) was added and mixed. […] The glass filter was cut off and transferred in a vial. To the vial was added 5 mL of a scintillator (manufactured by National Diagnostics), and the mixture was shaken for not less than one hour. Thereafter, the radioactive concentration was measured by a liquid scintillation counter.

[3] = test system: histamine-induced skin reaction in rat; experiment: Histamine-induced skin reaction test in rat (Test Example 3); assay type: in vivo; settings: oral, histamine 10 μg/0.1 mL/site intradermal, pigment area, read-out: Skin reaction test in rat ID50
Method: […] One hour after the administration, a 1% Evans Blue physiological saline solution (Tokyo Chemical Industry Co., Ltd.) was administered into the caudal vein in a dose of 5 mL/kg, and immediately histamine 10 μg/0.1 mL/site (manufactured by Wako Pure Chemical Industries, Ltd.) was intradermally administered into the dorsum. Thirty minutes after the administration, the rat was anesthetized with diethyl ether and then euthanized by cervical dislocation. The skin was ablated, and the major axis and minor axis of a spot of the pigment exuded into the skin were measured to calculate the area of the pigment.

[4] = test system: histamine-induced skin reaction in mouse; experiment: Skin reaction test in mouse (Test Example 4); assay type: in vivo; settings: oral, histamine 3 μg/50 μL/site intradermal, pigment area, read-out: Skin reaction test in mouse ID50
Method: Each mouse was sheared the day before test and fasted overnight. A low, middle or high dose of each test compound suspended in a 0.5% (W/V) CMC-Na aqueous solution was orally administered to the mouse. One hour after the administration, a 1% Evans Blue physiological saline solution (Tokyo Chemical Industry Co., Ltd.) was administered into the caudal vein in a dose of 10 mL/kg, and immediately histamine 3 μg/50 μL/site was intradermally administered into the dorsum. Thirty minutes after the administration, the mouse was anesthetized with diethyl ether and then euthanized by cervical dislocation. The skin was ablated, and the major axis and minor axis of a spot of the pigment exuded into the skin were measured to calculate the area of the pigment.

[5] = test system: mouse IgE-dependent ear edema model; experiment: Inhibitory effects on mouse IgE-dependent ear edema model (Test Example 8); assay type: in vivo; settings: oral twice a day, dose a multiple of mouse ID50 (Dose column of Table E); for Inhibitory effects in each allergic reaction phase: Immediate phase: mouse ear swelling 1 hour after antigen; for Inhibitory effects in each allergic reaction phase: Late phase: mouse ear swelling 24 hours after antigen; for Inhibitory effects in each allergic reaction phase: Very late phase: mouse ear swelling 7 days after antigen;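 on all read-outs here: 5 or 10 times the mouse skin-reaction ID50 per dose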
Method: To each mouse, 0.25 mL of an anti-DNP-IgE antibody (manufactured by SIGMA-ALDRICH) was intravenously administered for passive sensitization. On the day following the administration, an antigen (DNFB solution; manufactured by Wako Pure Chemical Industries, Ltd.) was applied on the right ear to induce dermatitis (ear swelling). One hour, 24 hours and 7 days after the application of the antigen, the thickness of the right ear was measured by a thickness measuring apparatus (dial thickness gauge). […] The thickness of the right ear before the sensitization was measured beforehand; the inhibition rates of the swelling in immediate phase, late phase, and very late phase were calculated.

T1 sequence (P31390 whole entry): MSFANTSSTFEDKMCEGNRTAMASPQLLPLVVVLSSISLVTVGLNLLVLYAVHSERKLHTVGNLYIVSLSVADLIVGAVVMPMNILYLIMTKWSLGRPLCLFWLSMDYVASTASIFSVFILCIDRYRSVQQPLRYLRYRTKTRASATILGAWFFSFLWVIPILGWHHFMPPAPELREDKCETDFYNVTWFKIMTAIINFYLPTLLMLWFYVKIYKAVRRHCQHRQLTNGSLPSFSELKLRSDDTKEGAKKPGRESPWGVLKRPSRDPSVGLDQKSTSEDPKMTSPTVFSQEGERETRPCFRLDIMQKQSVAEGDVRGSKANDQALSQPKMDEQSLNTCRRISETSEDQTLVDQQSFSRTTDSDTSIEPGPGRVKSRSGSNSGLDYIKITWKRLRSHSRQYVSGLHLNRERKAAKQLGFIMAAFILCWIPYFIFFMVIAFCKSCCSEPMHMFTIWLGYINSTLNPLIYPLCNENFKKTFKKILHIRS
T2 sequence (P35367 whole entry): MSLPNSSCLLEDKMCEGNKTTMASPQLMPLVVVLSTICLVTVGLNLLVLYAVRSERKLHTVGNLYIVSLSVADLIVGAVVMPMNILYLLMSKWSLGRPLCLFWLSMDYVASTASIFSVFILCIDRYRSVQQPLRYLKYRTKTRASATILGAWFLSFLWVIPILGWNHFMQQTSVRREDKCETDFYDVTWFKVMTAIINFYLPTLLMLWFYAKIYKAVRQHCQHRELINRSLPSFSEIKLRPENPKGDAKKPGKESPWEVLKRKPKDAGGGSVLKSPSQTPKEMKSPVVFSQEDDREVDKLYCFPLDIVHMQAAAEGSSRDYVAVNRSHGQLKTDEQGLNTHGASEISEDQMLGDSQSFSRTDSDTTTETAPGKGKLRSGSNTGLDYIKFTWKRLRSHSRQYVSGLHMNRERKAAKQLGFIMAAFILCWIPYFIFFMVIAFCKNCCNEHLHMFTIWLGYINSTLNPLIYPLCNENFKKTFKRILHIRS

SMILES | IC50 [1] [nM] | IC50 [2] [nM] | also measured
O=C(O)COCCN1CCN(C(c2ccccc2)c2ccc(Cl)cc2)CC1 (centres unmarked) [Cetirizine] | 88 | – | –
O=C(O)c1coc(CN2CCC(OC(c3ccccc3)c3ccccc3)CC2)n1 [Example 3] | 55 | – | –
O=C(O)c1csc(CN2CCC(OC(c3ccccc3)c3ccccc3)CC2)n1 [Example 4] | 39 | – | –
COc1ccc(C(OC2CCN(Cc3cccc(C(=O)O)n3)CC2)c2ccccc2)cc1 (centres unmarked) [Example 17] | 110 | – | –
O=C(O)c1cccc(CN2CCC(OC(c3ccccc3)c3ccc(F)cc3)CC2)n1 (centres unmarked) [Example 18] | 89 | – | ED50 [3]: 0.2 mg/kg
O=C(O)c1cccc(CN2CCC(OC(c3ccccc3)c3ccccc3F)CC2)n1 (centres unmarked) [Example 20] | 69 | 29 | –
O=C(O)c1cccc(CN2CCN(C(c3ccccc3)c3ccc(Cl)cc3)CC2)n1 (centres unmarked) [Example 23] | 36 | 30 | ED50 [3]: 1.8 mg/kg
O=C(O)c1cccc(CN2CCC(OC(c3ccccc3)c3cccc(F)c3)CC2)n1 (centres unmarked) [Example 25] | 12 | 22 | –
O=C(O)c1cccc(CN2CCC(OC(c3ccccc3)c3cccc(C(F)(F)F)c3)CC2)n1 (centres unmarked) [Example 26] | 83 | – | –
O=C(O)c1cc(CN2CCC(OC(c3ccccc3)c3ccccc3)CC2)ccn1 [Example 29] | 63 | – | –
O=C(O)c1ccc(CN2CCC(OC(c3ccccc3)c3ccccc3)CC2)[nH]1 [Example 35, 5-(4-Benzhydryloxypiperidin-1-ylmethyl)-1H-pyrrole-2-carboxylic acid] | 61 | 15 | –
O=C(O)c1nc(CN2CCC(OC(c3ccccc3)c3ccccc3)CC2)cs1 [Example 36] | 99 | – | –
O=C(O)c1ccnc(CN2CCC(OC(c3ccccc3)c3cccc(F)c3)CC2)c1 (centres unmarked) [Example 40] | 1.2 | 26 | –
Cc1ccc(C(OC2CCN(Cc3cc(C(=O)O)ccn3)CC2)c2ccccc2)cc1 (centres unmarked) [Example 41] | 19 | 18 | –
O=C(O)c1ccnc(CN2CCC(OC(c3ccccc3)c3ccc(Cl)cc3)CC2)c1 (centres unmarked) [Example 42] | 24 | 19 | ED50 [3]: 1.8 mg/kg
O=C(O)c1nc(CN2CCC(OC(c3ccccc3)c3ccc(Cl)cc3)CC2)cs1 (centres unmarked) [Example 44] | 20 | – | –

SMILES | IC50 [1] [nM] | IC50 [2] [nM] | also measured
Cc1ccc(C(OC2CCN(Cc3ccc(C(=O)O)o3)CC2)c2ccccc2)cc1 (centres unmarked) [Example 46] | 68 | – | –
O=C(O)c1cccc(CN2CCC(OC(c3ccc(F)cc3)c3cccc(F)c3)CC2)n1 (centres unmarked) [Example 49] | 89 | 17 | ED50 [3]: 1.5 mg/kg
O=C(O)c1cccc(CN2CCC(=C3c4ccc(Cl)cc4CCc4cccnc43)CC2)n1 [Example 68] | 40 | – | –
O=C(O)c1cccc(CN2CCC(=C3c4ccccc4CCc4ccccc43)CC2)c1 [Example 74] | – | – | ED50 [3]: 2.1 mg/kg
O=C(O)c1cccc(CN2CCC(=C3c4ccccc4CCc4ccccc43)CC2)n1 [Example 75] | 67 | 23 | ED50 [3]: 1.2 mg/kg
O=C(O)c1cccc(CN2CCC(=C3c4ccccc4COc4ccccc43)CC2)n1 [Example 80] | – | 17 | –
O=C(O)c1cnn(CN2CCC(OC(c3ccccc3)c3ccccc3)CC2)c1 [Example 84] | – | 17 | –
O=C(O)c1ccc(CN2CCC(OC(c3ccccc3)c3ccc(F)cc3)CC2)cn1 (centres unmarked) [Example 85] | – | 22 | –
O=C(O)c1cccc(CN2CCC(OC(c3ccc(F)cc3)c3ccccc3F)CC2)n1 (centres unmarked) [Example 86] | – | 16 | –
O=C(O)c1ccnc(CN2CCC(OC(c3ccc(F)cc3)c3ccccc3F)CC2)c1 (centres unmarked) [Example 87] | – | 21 | ED50 [4]: 0.06 mg/kg; Inhibitory effects in each allergic reaction phase: Immediate phase [5]: ++ (++ Inhibitory rate 45 to 20%); Inhibitory effects in each allergic reaction phase: Late phase [5]: ++ (++ Inhibitory rate 45 to 20%); Inhibitory effects in each allergic reaction phase: Very late phase [5]: + (+ Inhibitory rate 19 to 10%)
O=C(O)c1cncc(CN2CCC(OC(c3ccccc3)c3ccc(F)cc3)CC2)c1 (centres unmarked) [Example 88] | – | 21 | –
O=C(O)c1cccc(CN2CCC(OC(c3ccccc3)c3cccc(Cl)c3)CC2)n1 (centres unmarked) [Example 116] | – | 17 | –
O=C(O)c1ccnc(CN2CCC(OC(c3ccccc3)c3cccc(Cl)c3)CC2)c1 (centres unmarked) [Example 117] | – | 24 | –
O=C(O)c1ccnc(CN2CC[C@H](OC(c3ccccc3)c3ccccc3)C2)c1 [Example 131, 2-((S)-3-Benzhydryloxypyrrolidin-1-ylmethyl)isonicotinic acid] | – | 15 | –
O=C(O)c1cccc(CN2CCN(C(c3ccccc3)c3ccc(F)cc3)CC2)n1 (centres unmarked) [Example 143] | – | 24 | –

More lines, in order of falling IC50 [2], values ahead:

IC50 [1] [nM] | IC50 [2] [nM] | SMILES | also measured
42 | 15 | O=C(O)c1cncc(CN2CCC(OC(c3ccccc3)c3ccccc3)CC2)c1 [Example 30] | –
81 | 14 | O=C(O)c1ccc(CN2CCC(OC(c3ccccc3)c3ccccc3)CC2)o1 [Example 1, 5-(4-Benzhydryloxypiperidin-1-ylmethyl)furan-2-carboxylic acid] | –
– | 14 | COc1ccc(CN2CCC(OC(c3ccccc3)c3ccc(F)c(F)c3)CC2)nc1C(=O)O (centres unmarked) [Example 53] | –
– | 13 | O=C(O)c1ccnc(CN2CC[C@H](OC(c3ccc(F)cc3)c3ccc(F)cc3)C2)c1 [Example 154] | –
18 | 12 | O=C(O)c1ccc(CN2CCC(OC(c3ccccc3)c3ccc(Cl)cc3)CC2)o1 (centres unmarked) [Example 43] | –
38 | 11 | O=C(O)c1cc(F)cc(CN2CCC(OC(c3ccccc3)c3ccccc3)CC2)c1 [Example 6] | ED50 [3]: 0.6 mg/kg
– | 10 | O=C(O)c1cccc(CN2CC[C@H](OC(c3ccc(F)cc3)c3ccc(F)cc3)C2)n1 [Example 155] | –
8.2 | 9.2 | O=C(O)c1cccc(CN2CCC(OC(c3ccccc3)c3ccccc3)C2)n1 (centres unmarked) [Example 24] | –
31 | 8.9 | O=C(O)c1ccnc(CN2CCC(OC(c3ccccc3)c3ccccc3)CC2)c1 [Example 27] | ED50 [4]: 0.03 mg/kg; Inhibitory effects in each allergic reaction phase: Immediate phase [5]: ++ (++ Inhibitory rate 45 to 20%); Inhibitory effects in each allergic reaction phase: Late phase [5]: ++ (++ Inhibitory rate 45 to 20%); Inhibitory effects in each allergic reaction phase: Very late phase [5]: ++ (++ Inhibitory rate 45 to 20%)
– | 8.9 | O=C(O)c1ccnc(CN2CCC(=C3c4ccccc4C=Cc4ccccc43)CC2)c1 [Example 72] | ED50 [4]: 0.06 mg/kg
– | 8.4 | O=C(O)c1ccnc(CN2CCC(OC(c3ccc(F)cc3)c3ccc(F)cc3)CC2)c1 [Example 124] | –
– | 7.5 | O=C(O)c1cc(CN2CCC(OC(c3ccccc3)c3ccc(F)cc3)CC2)cs1 (centres unmarked) [Example 89] | –
– | 6.7 | O=C(O)c1ccnc(CN2CCC(OC(c3ccc(F)cc3)c3cccc(F)c3)CC2)c1 (centres unmarked) [Example 52] | ED50 [4]: 0.1 mg/kg
– | 6.1 | O=C(O)c1cccc(CN2CC[C@@H](OC(c3ccccc3)c3ccccc3)C2)n1 [Example 128, 6-((R)-3-Benzhydryloxypyrrolidin-1-ylmethyl)pyridine-2-carboxylic acid] | –
– | 5.1 | O=C(O)c1cccc(CN2CC[C@H](OC(c3ccccc3)c3ccccc3)C2)n1 [Example 129, 6-((S)-3-Benzhydryloxypyrrolidin-1-ylmethyl)pyridine-2-carboxylic acid] | ED50 [4]: 0.04 mg/kg; Inhibitory effects in each allergic reaction phase: Immediate phase [5]: ++ (++ Inhibitory rate 45 to 20%); Inhibitory effects in each allergic reaction phase: Late phase [5]: ++ (++ Inhibitory rate 45 to 20%); Inhibitory effects in each allergic reaction phase: Very late phase [5]: ++ (++ Inhibitory rate 45 to 20%)
– | 4.9 | O=C(O)c1ccnc(CN2CCC(OC(c3ccccc3)c3ccc(F)c(F)c3)CC2)c1 (centres unmarked) [Example 51] | ED50 [4]: 0.07 mg/kg
